# Where a name gives a salt, the structure may show the parent alone.
# Experiments:
# wild type HeLa cells = assay: HeLa cytotoxicity, wild type; assay type: cell-based; settings: Homo sapiens
# PDGFRβ = PDGFRβ (Homo sapiens, UniProt P09619); assay: PDGFRβ kinase inhibition, whole-cell assay; assay type: cell-based; settings: whole-cell assay; read-out: kinase inhibition IC50 [whole-cell assays] PDGFRβ
# VEGFR2 = VEGFR2 (Homo sapiens, UniProt P35968); assay: VEGFR2 kinase inhibition, whole-cell assay; assay type: cell-based; settings: read-out: kinase inhibition IC50 [whole-cell assays] VEGFR2
# VEGFR2, sequence (P35968 20-1356, species assumed): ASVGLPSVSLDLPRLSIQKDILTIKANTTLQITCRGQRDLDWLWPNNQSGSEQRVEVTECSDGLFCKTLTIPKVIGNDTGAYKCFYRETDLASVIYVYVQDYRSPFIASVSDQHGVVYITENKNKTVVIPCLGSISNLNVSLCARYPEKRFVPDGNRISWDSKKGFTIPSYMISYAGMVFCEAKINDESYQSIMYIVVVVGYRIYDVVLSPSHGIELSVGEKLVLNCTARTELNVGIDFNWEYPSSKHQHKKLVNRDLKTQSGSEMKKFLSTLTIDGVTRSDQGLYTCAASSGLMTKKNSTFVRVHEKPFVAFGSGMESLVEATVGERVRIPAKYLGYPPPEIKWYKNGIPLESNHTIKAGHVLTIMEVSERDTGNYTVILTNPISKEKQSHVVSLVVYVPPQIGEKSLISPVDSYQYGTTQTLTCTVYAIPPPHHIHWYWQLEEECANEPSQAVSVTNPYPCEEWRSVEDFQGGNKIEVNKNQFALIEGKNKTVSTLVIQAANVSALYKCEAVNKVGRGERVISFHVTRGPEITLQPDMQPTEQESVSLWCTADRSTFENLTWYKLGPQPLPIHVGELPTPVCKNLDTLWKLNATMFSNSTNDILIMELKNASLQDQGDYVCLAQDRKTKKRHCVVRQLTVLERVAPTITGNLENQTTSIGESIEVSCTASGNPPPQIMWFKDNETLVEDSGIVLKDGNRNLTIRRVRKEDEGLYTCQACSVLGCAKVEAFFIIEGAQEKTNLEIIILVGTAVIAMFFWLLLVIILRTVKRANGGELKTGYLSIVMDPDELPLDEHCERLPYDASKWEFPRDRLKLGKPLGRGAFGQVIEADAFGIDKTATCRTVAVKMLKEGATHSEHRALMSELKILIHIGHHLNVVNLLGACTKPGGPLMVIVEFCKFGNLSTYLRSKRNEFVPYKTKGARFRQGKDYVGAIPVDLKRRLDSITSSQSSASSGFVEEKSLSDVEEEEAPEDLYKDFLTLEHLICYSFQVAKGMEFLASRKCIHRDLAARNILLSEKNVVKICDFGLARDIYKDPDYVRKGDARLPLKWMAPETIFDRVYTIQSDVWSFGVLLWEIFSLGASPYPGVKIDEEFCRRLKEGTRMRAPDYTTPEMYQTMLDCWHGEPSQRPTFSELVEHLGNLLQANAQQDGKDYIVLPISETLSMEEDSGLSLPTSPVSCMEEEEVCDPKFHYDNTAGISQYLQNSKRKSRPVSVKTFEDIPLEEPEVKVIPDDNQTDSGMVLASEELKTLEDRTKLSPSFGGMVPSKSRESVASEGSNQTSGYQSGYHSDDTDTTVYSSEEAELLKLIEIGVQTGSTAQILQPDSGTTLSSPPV
# EGFR = EGFR (Homo sapiens, UniProt P00533); assay: EGFR kinase inhibition, whole-cell assay; assay type: cell-based; settings: read-out: kinase inhibition IC50 [whole-cell assays] EGFR
# EGFR, sequence (P00533 25-1210, species assumed): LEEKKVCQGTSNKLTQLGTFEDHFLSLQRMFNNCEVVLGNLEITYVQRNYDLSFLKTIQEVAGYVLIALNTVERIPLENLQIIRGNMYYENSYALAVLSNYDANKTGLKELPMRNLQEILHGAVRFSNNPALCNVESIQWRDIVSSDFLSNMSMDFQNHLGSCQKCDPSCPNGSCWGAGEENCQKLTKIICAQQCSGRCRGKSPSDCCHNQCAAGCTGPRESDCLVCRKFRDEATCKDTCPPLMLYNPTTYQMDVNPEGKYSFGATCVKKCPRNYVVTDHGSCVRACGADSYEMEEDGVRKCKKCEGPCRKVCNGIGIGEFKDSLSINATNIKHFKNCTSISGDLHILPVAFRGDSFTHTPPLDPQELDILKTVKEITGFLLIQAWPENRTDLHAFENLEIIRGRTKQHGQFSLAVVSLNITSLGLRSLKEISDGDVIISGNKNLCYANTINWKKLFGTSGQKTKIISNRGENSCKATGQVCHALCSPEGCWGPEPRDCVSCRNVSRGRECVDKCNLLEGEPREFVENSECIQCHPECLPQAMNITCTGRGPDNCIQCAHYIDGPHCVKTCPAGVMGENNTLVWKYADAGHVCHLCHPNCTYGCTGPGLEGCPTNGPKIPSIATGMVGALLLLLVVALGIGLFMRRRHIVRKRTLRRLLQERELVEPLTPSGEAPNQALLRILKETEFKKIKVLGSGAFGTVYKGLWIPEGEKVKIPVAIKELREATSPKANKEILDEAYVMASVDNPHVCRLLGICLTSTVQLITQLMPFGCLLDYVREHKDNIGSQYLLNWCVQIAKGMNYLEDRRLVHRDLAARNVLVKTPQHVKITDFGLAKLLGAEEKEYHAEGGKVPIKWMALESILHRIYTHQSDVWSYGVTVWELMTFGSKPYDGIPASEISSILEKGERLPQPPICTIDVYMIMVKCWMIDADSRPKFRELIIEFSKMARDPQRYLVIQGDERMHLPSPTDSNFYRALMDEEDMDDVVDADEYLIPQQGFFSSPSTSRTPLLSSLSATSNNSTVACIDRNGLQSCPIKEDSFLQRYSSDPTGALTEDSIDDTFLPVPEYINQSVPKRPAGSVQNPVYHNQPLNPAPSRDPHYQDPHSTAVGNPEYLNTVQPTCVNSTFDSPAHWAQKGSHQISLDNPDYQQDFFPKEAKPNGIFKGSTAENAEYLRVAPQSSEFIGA
# [1] = tested on: 4T1-Luc2GFP triple negative mouse breast cancer cells; assay type: in vivo
# Procedure: (§1) BALB/c mice were implanted with 7.5 k 4T1-Luc2GFP triple negative mouse breast cancer cells orthotopically into mammary fat pad 4. 7 days after implantation, tumors are visible in over 90% of animals. At day 8 and continuing twice weekly until the experiment end, the MTD of compound 4.HCl (i.e. the hydrochloride salt of compound 4 shown in FIG. 1), determined to be 40 mg/kg, was given IP to tumor-bearing mice; […]; Both drugs were in solvent (5% solutol-15, 5% PharmaSolve in normal saline) and a solvent control group was included in addition to sham injected (untreated) group. Primary tumor volume and animal weights was assessed by calipers throughout the experiment.
# On day 40, all animals were injected IV with fluorescently labeled dextran as a marker of vasculature. Tumors were excised and weighed; lungs were excised and evaluated for metastases. […]; large micro metastases (>10 cells with no vasculature) and macrometastases (>10 cells with apparent vasculature) were counted. […]
# MTD in mice = settings: BALB/c, mouse, in vivo, ip
# Procedure: as §1
# [2] = tested on: βIII-tubulin overexpressing HeLa cell line; assay: HeLa cytotoxicity, βIII-tubulin overexpressing; assay type: cell-based
# PDGFRβ, sequence (P09619 33-1106, species assumed): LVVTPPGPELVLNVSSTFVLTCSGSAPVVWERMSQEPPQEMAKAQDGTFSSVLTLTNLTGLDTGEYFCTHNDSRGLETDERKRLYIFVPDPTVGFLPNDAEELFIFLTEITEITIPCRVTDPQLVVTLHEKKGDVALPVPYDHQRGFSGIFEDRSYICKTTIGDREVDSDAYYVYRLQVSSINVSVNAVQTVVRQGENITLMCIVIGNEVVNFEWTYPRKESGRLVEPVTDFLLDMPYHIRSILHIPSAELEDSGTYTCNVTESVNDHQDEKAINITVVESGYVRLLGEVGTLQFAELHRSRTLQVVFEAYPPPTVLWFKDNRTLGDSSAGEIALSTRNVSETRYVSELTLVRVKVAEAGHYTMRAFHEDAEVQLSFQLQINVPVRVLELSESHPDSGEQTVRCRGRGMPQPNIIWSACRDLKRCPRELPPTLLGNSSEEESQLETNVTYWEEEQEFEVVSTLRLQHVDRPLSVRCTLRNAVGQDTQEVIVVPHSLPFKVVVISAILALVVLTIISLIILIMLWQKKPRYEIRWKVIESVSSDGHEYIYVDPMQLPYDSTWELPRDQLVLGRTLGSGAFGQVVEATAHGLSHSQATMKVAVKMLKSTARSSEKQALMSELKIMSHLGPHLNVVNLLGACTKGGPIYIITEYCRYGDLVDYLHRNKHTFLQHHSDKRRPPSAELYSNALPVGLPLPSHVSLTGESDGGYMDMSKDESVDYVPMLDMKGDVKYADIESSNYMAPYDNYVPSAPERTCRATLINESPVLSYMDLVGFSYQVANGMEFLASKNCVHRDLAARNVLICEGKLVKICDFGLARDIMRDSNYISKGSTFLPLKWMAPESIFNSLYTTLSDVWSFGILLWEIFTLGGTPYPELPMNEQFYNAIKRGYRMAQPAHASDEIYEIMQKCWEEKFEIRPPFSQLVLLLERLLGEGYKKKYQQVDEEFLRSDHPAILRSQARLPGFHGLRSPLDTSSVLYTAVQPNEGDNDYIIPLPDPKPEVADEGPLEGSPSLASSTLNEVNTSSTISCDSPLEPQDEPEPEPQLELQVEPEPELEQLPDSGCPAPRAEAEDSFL
smiles,measurement,setting,value
"COc1ccc2c(c1)CCCN2c1nc(C)nc2c(Cc3ccccc3)cn(C)c12 [Compound 5, 1-(7-Benzyl-2,5-dimethyl-5H-pyrrolo[3,2-d]pyrimidin-4-yl)-6-methoxy-1,2,3,4-tetrahydroquinoline]",melting point,,130 to 132 °C
same,IC50,wild type HeLa cells,60 nM
same,IC50,PDGFRβ,30.2 nM
same,IC50,VEGFR2,32.9 nM
same,IC50,EGFR,4.9 ± 0.6 nM
"COc1ccc(N(C)c2nc(C)nc3c(Cc4ccccc4)cn(C)c23)cc1 [Compound 4.HCl, 7-Benzyl-N-(4-methoxyphenyl)-N,2,5-trimethyl-5H-pyrrolo[3,2-d]pyrimidin-4-amine]",4T1 primary tumor growth (volume),"[1]; 40 mg/kg IP twice weekly from day 8, vs carrier or vs doxorubicin, FIG. 2",significantly reduced 4T1 primary growth
same,number of lung small micro metastases,"[1]; day 40, 1-9 cells without any vasculature, FIG. 5",reduced the number of lung small micro metastases
same,lung macrometastases,"[1]; day 40, >10 cells with apparent vasculature, FIG. 5",none had any lung macrometastases
same,tumor weight at the end of the experiment,"[1]; day 40, FIG. 4",reduced tumor weight
same,animal weight,"[1]; mouse, in vivo",no change in animal weight
same,MTD,MTD in mice,40 mg/kg
CC(=O)O[C@H]1C(=O)[C@@]2(C)[C@H]([C@H](OC(=O)c3ccccc3)[C@]3(O)C[C@H](OC(=O)[C@H](O)[C@@H](NC(=O)c4ccccc4)c4ccccc4)C(C)=C1C3(C)C)[C@]1(OC(C)=O)CO[C@@H]1C[C@@H]2O [paclitaxel],IC50,wild type HeLa cells,5.3 ± 2 nM
same,fold less potent in βIII-tubulin overexpressing cell line than in wild type HeLa cells,[2],3 fold
same,IC50,"[2]; Homo sapiens, βIII-tubulin overexpressing HeLa",16.1 ± 1 nM
"COc1ccc(Nc2nc(C)nc3c(Cc4ccccc4)cn(C)c23)cc1 (as salt: salt) [Compound 3, 7-Benzyl-N-(4-methoxyphenyl)-2,5-dimethyl-5H-pyrrolo[3,2-d]pyrimidin-4-amine]",melting point,,291 to 292 °C

# From patent publication US10906910B2, “Substituted bicyclic pyrimidine compounds with tubulin and multiple receptor inhibition” (Duquesne University of the Holy Spirit, priority 2014, dated 2021)
